Measurements reported in article PMC10331583, “Control of fibrosis with enhanced safety via asymmetric inhibition of prolyl‐tRNA synthetase 1” (EMBO Molecular Medicine, 2023).
Where “and” joins values, the source holds several entries; their conditions need not be identical. Identical values can stand only once.

Tests used:
C57BL/6 mice [1] = assay: Bleomycin‐induced lung fibrosis, therapeutic model 1 (compounds from a week after bleomycin); format: in vivo; details: for BALF total cell count, average / BALF total cell count, single animal / Collagen contents, average / Collagen contents, single animal / Fibrotic area, average / Fibrotic area, single animal / SpO2, average / SpO2, single animal: BLM +
Method: To examine therapeutic efficacy of DWN12088, all experiments were conducted following the international guidelines on the ethical use of experimental animals and approved by the Institutional Animal Care and Use Committee of Daewoong Pharmaceutical (IACUC‐21‐014). C57BL/6 mice (7–8‐week‐old, male, obtained from Orient Bio) were anesthetized with Zoletil and injected intratracheally with 100 μl bleomycin (2 units/kg) (Merck, B8416) to induce lung fibrosis. A group of disease‐free mice (“untreated”) were injected with PBS instead of bleomycin. After a week, mice treated with bleomycin were randomized to (i) vehicle (saline), (ii) HF 0.05 mg/kg, (iii) HF 0.1 mg/kg, and (iv) DWN12088 10 mg/kg groups (n = 5 for each group) according to their body weight. The drugs were orally administered once daily for 2 weeks, and then the outcome was analyzed. For the experiments testing the effect of the compounds 2 weeks after bleomycin challenge, the experiment was approved by IACUC of Daewoong Pharmaceutical (IACUC‐22‐009). The experimental procedures were performed following the methods described previously, with the exception that the compounds were administered 2 weeks after bleomycin challenge. The experiments were conducted as non‐blind tests.
Mice were anesthetized with Zoletil for 10 min, and a portable mouse pulse oximeter (Veterinary Pulse Oximeter, Berry Electronic) was placed on each mouse's body. The measurements were continued to allow the recording of 3 min of a stable signal.
The collagen contents of lung tissues were measured using Sircol™ soluble collagen assay (Biocolor Ltd., S1000) following the manufacturer's instructions. Briefly, the right lung lobes were homogenized, and collagen was solubilized in 0.5 M acetic acid. Tissue extracts were incubated with Sirius red dye, and the absorbance was determined at 540 nm using a spectrophotometer. The amount of collagen was expressed relative to the wet weight of the tissues.
The lung tissues were fixed in paraformaldehyde and embedded in paraffin. The paraffin‐embedded blocks were sectioned at 4 μm and then mounted onto glass slides. After deparaffinization and rehydration, the slides were fixed with Bouin's solution (Sigma Aldrich, HT10132‐1L) for 1 h. Then, the slides were incubated with hematoxylin (Sigma Aldrich, MHS16‐500ML), Biebrich Scarlet (Sigma Aldrich, B‐6008) and acid fuchsin (Sigma Aldrich, A‐3908), phosphomolybdic (DAEJUNG, 6531‐4105) and phosphotungstic acid (DAEJUNG, 6539‐4105), aniline blue (DAEJUNG, 1087‐4125), and then 1% (v/v) acetic acid (DUKSAN, UN2789). After dehydration, the slides were mounted onto cover slips and scanned using slide scanner (3D HISTECH, Pannoramic MIDI). Fibrotic area of the images was quantified by using Image J plugin, color deconvolution 2.

C57BL/6 mice [2] = assay: Bleomycin‐induced lung fibrosis, therapeutic model 2 (compounds from 2 weeks after bleomycin); format: in vivo; details: model 2, drug administration from day 14
Method: To examine therapeutic efficacy of DWN12088, all experiments were conducted following the international guidelines on the ethical use of experimental animals and approved by the Institutional Animal Care and Use Committee of Daewoong Pharmaceutical (IACUC‐21‐014). C57BL/6 mice (7–8‐week‐old, male, obtained from Orient Bio) were anesthetized with Zoletil and injected intratracheally with 100 μl bleomycin (2 units/kg) (Merck, B8416) to induce lung fibrosis. A group of disease‐free mice (“untreated”) were injected with PBS instead of bleomycin. After a week, mice treated with bleomycin were randomized to (i) vehicle (saline), (ii) HF 0.05 mg/kg, (iii) HF 0.1 mg/kg, and (iv) DWN12088 10 mg/kg groups (n = 5 for each group) according to their body weight. The drugs were orally administered once daily for 2 weeks, and then the outcome was analyzed. For the experiments testing the effect of the compounds 2 weeks after bleomycin challenge, the experiment was approved by IACUC of Daewoong Pharmaceutical (IACUC‐22‐009). […]
The collagen contents of lung tissues were measured using Sircol™ soluble collagen assay (Biocolor Ltd., S1000) following the manufacturer's instructions. […] Tissue extracts were incubated with Sirius red dye, and the absorbance was determined at 540 nm using a spectrophotometer. […]

PARS1 = target: T1, PARS1 (Homo sapiens, UniProt P07814); assay: In vitro prolylation assay; format: biochemical
T1 construct: His‐PARS1 (1001–1,512 aa); His; made in house; host or cells: Escherichia coli
T1 sequence (P07814 1001-1512 limits assumed): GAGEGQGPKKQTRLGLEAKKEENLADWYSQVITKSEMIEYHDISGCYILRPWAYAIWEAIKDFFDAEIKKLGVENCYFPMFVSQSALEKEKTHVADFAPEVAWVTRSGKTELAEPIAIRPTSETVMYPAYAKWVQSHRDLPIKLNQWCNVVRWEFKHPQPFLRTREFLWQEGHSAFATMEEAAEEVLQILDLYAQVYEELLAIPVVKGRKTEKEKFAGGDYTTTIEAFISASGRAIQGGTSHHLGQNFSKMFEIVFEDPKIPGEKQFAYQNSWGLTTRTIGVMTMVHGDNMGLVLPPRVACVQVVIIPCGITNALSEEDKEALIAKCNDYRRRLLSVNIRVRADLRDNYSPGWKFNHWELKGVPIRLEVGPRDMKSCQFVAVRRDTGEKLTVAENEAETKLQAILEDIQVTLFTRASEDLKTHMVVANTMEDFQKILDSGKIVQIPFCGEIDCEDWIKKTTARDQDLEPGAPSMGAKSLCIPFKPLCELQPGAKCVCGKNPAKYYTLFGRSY
Method: The enzyme reaction was initiated by the addition of 100 nM purified His‐PARS1 (1001–1,512 aa). After 5 min, the reaction mixture was quenched on Whatman filter paper presoaked with 5% trichloroacetic acid (TCA). The filter papers were washed three times in 5% TCA for 10 min at 4°C and once in 100% ethanol for 10 min. The filter papers were dried, and radioactivity was quantified using liquid scintillation counter (LSC).
After 1 h, the reaction mixture was quenched on Whatman filter paper presoaked with 5% TCA. The filter papers were washed three times in 5% TCA for 10 min at 4°C and once in 100% ethanol for 10 min. The filter papers were dried, and radioactivity was quantified using LSC.

PARS1 WT = target: T2, PARS1 WT (Homo sapiens, UniProt P07814); assay: Microscale thermophoresis (MST), PARS1 WT; format: binding; details: for Fraction bound: single replicates
T2 construct: His‐PARS1 (1001–1,512 aa); made in house; host or cells: Escherichia coli
T2 sequence (P07814 1001-1512 limits assumed): T1 sequence (P07814 1001-1512 limits assumed)

`O=C(CC1NCCCC1O)Cn1cnc2cc(Br)c(Cl)cc2c1=O` (stereo not shown) [HF, Halofuginone, reference compound] was tested, and the SpO2 (C57BL/6 mice [1]; 0.05 mg/kg oral once a day, 2 weeks (Figs 1E and EV4G)) was “did not show an improvement in SpO2”, the “BALF total cell count, average” value (C57BL/6 mice [1]; 0.05 mg/kg) was 10.46 x105 cells and the “BALF total cell count, single animal” value (C57BL/6 mice [1]; 0.05 mg/kg) was 10 x105 cells and 12 x105 cells and 9.3 x105 cells and 11 x105 cells. For the same compound, the “Collagen contents, average” value (C57BL/6 mice [1]; 0.05 mg/kg) was 308.0 μg/right lung, the “Collagen contents, single animal” value (C57BL/6 mice [1]; 0.05 mg/kg) was 314 μg/right lung and 298 μg/right lung and 320 μg/right lung and 264 μg/right lung and 344 μg/right lung and the “Fibrotic area, average” value (C57BL/6 mice [1]; 0.05 mg/kg) was 275.3 % of control. The “Fibrotic area, single animal” value (C57BL/6 mice [1]; 0.05 mg/kg) was 303.9 % of control and 169.0 % of control and 380.1 % of control and 194.5 % of control and 329.1 % of control, the “SpO2, average” value (C57BL/6 mice [1]; 0.05 mg/kg) was 71.2% and the “SpO2, single animal” value (C57BL/6 mice [1]; 0.05 mg/kg) was 72% and 64% and 66% and 76% and 78%. The “BALF total cell count, average” value (C57BL/6 mice [1]; 0.1 mg/kg) was 7.38 x105 cells, the “BALF total cell count, single animal” value (C57BL/6 mice [1]; 0.1 mg/kg) was 7.2 x105 cells and 9 x105 cells and 5.1 x105 cells and 7.4 x105 cells and 8.2 x105 cells and the “Collagen contents, average” value (C57BL/6 mice [1]; 0.1 mg/kg) was 231.8 μg/right lung. For the same compound, the “Collagen contents, single animal” value (C57BL/6 mice [1]; 0.1 mg/kg) was 254 μg/right lung and 195 μg/right lung and 275 μg/right lung and 201 μg/right lung and 234 μg/right lung, the “Fibrotic area, average” value (C57BL/6 mice [1]; 0.1 mg/kg) was 171.2 % of control and the “Fibrotic area, single animal” value (C57BL/6 mice [1]; 0.1 mg/kg) was 180.4 % of control and 138.3 % of control and 115.6 % of control and 249.0 % of control and 172.5 % of control. For the same compound, the “SpO2, average” value (C57BL/6 mice [1]; 0.1 mg/kg) was 80.0%, the “SpO2, single animal” value (C57BL/6 mice [1]; 0.1 mg/kg) was 78% and 81% and 85% and 82% and 74% and the “collagen deposition, Masson's trichrome staining” value (C57BL/6 mice [1]; lung tissue (Fig 1H and I)) was “decreased collagen deposition in the interstitial spaces”. The fibrotic properties (C57BL/6 mice [1]; model 1, drug administration from day 7) was “significantly reduced fibrotic properties”, the fibrotic properties (C57BL/6 mice [2]) was “less apparent” and the IC50 (PARS1; IC50, 1 μM Pro, 5 mM ATP) was 24.5 nM. For the same compound, the IC50 (PARS1; IC50, 10 μM Pro, 5 mM ATP) was 46.2 nM, the IC50 (PARS1; IC50, 100 μM Pro, 2.5 mM ATP) was 137 nM and the IC50 (PARS1; IC50, 100 μM Pro, 5 mM ATP) was 103 nM. For the same compound, the IC50 (PARS1; IC50, 100 μM Pro, 10 mM ATP) was 101 nM, the “mode of PARS1 inhibition” value (PARS1; IC50 at different proline and ATP concentrations) was “proline‐competitive and ATP‐uncompetitive” and the “Fraction bound, average” value (PARS1 WT; Dose 3.0518 nM) was -0.0712. The Fraction bound (PARS1 WT; Dose 3.0518 nM) was -0.0993 and -0.0066 and -0.1077, the “Fraction bound, average” value (PARS1 WT; Dose 6.1035 nM) was -0.0015 and the Fraction bound (PARS1 WT; Dose 6.1035 nM) was 0.0287 and -0.0242 and -0.0091. The “Fraction bound, average” value (PARS1 WT; Dose 12.207 nM) was 0.0765, the Fraction bound (PARS1 WT; Dose 12.207 nM) was 0.1266 and 0.0543 and 0.0485 and the “Fraction bound, average” value (PARS1 WT; Dose 24.4141 nM) was 0.1050. The Fraction bound (PARS1 WT; Dose 24.4141 nM) was 0.1952 and 0.1143 and 0.0054, the “Fraction bound, average” value (PARS1 WT; Dose 48.8281 nM) was 0.1434 and the Fraction bound (PARS1 WT; Dose 48.8281 nM) was 0.1825 and 0.1031 and 0.1448. The “Fraction bound, average” value (PARS1 WT; Dose 97.6563 nM) was 0.2466, the Fraction bound (PARS1 WT; Dose 97.6563 nM) was 0.2751 and 0.2161 and 0.2485 and the “Fraction bound, average” value (PARS1 WT; Dose 195.312 nM) was 0.5229. For the same compound, the Fraction bound (PARS1 WT; Dose 195.312 nM) was 0.5425 and 0.5488 and 0.4774, the “Fraction bound, average” value (PARS1 WT; Dose 390.625 nM) was 0.7387 and the Fraction bound (PARS1 WT; Dose 390.625 nM) was 0.7958 and 0.7241 and 0.6962. For the same compound, the “Fraction bound, average” value (PARS1 WT; Dose 781.25 nM) was 0.9030, the Fraction bound (PARS1 WT; Dose 781.25 nM) was 0.8890 and 0.8991 and 0.9209 and the “Fraction bound, average” value (PARS1 WT; Dose 1562.5 nM) was 0.9612. The Fraction bound (PARS1 WT; Dose 1562.5 nM) was 0.9380 and 1.0072 and 0.9382, the “Fraction bound, average” value (PARS1 WT; Dose 3125 nM) was 0.9287 and the Fraction bound (PARS1 WT; Dose 3125 nM) was 0.9278 and 0.9164 and 0.9420. For the same compound, the “Fraction bound, average” value (PARS1 WT; Dose 6250 nM) was 0.9609, the Fraction bound (PARS1 WT; Dose 6250 nM) was 0.9251 and 0.9572 and 1.0004 and the “Fraction bound, average” value (PARS1 WT; Dose 12500 nM) was 0.9979. For the same compound, the Fraction bound (PARS1 WT; Dose 12500 nM) was 0.9525 and 1.0119 and 1.0291, the “Fraction bound, average” value (PARS1 WT; Dose 25000 nM) was 1.0497 and the Fraction bound (PARS1 WT; Dose 25000 nM) was 1.0026 and 1.0240 and 1.1224. For the same compound, the “Fraction bound, average” value (PARS1 WT; Dose 50000 nM) was 0.9548, the Fraction bound (PARS1 WT; Dose 50000 nM) was 0.8756 and 0.9971 and 0.9917 and the “Fraction bound, average” value (PARS1 WT; Dose 100000 nM) was 1.0743. The Fraction bound (PARS1 WT; Dose 100000 nM) was 1.0331 and 1.0480 and 1.1418.
